Measurements as given in US8158667B2, “Topical treatment of cataracts in dogs” (priority 2006, dated 2012).

Experiments:
aldose reductase = aldose reductase (Homo sapiens, UniProt P15121); settings: '704 patent; cited from earlier work
accumulation of sorbitol = settings: fold more effective than sorbinil; '704 patent; cited from earlier work
[1] = stability of 2R-MS in carbomer gel emulsion; format: physicochemical; settings: room temperature
Protocol: To maximize the topical administration of 2R-MS, vehicles or carriers of different viscosities comprised of polymers, gums, or viscosity enhancers were prepared. Formulations containing 3% of the AR inhibitor 2R-MS were prepared using the five different vehicles, which included 0.5% hydroxypropyl methylcellulose (HPMC); 0.5% xanthan gum; 0.5% gellan gum; 0.25% carbopol; and 0.25% carbopol (0.25% w/v)+0.25% HPMC. All were prepared in modified Sorensen's Phosphate Buffer, pH of 7.4. The drug and each vehicle were suspended directly in a sterile eye drop bottle by vortexing vigorously for at least one minute. […] All suspensions were vortexed prior to topical administration. An additional topical carbomer gel formulation consisting of 2.5% water soluble high molecular weight polymer of acrylic acid cross-linked with a polyether of sucrose was also developed. Carbomers are widely used in products for the treatment of dry eye. Crystalline 2R-MS was ground into a fine powder and mixed into an emulsion according to standard techniques.

[2] = systemic half-life in dogs; settings: dog, in vivo
Excerpt: Topical administration of the ARI 2R,4S-6-fluoro-2-methyl-spiro[chroman-4,4′-imidazolidine]-2′,5′-dione (2-MS) is the preferred method for preventing cataracts and ocular complications in diabetic dogs and cats. As a result of the short, 3 hr systemic half-life of 2-MS in dogs and subsequent studies conducted in galactose-fed dogs, it is estimated that, at minimum, a multiple 4-times/day oral dose is required for efficacy. Topical application permits a lower dosage and a lower frequency of administration. Topical application will also minimize the tendency of diabetic dogs to have their liver functions compromised because topical administration will bypass first pass liver metabolism. The topical treatment of the present invention will not only arrest the progression of sugar cataracts, but also reduces the density of early cortical cataracts. […] The topical treatment should also delay the formation of other ocular diabetes associated complications associated with aldose reductase, as summarized above.

CC1CC2(NC(=O)NC2=O)c2cc(F)ccc2O1 (stereo not shown) [2-methyl sorbinil, 6-fluoro-2-methyl-spiro-[chroman-4,4′-imidazolidine]-2′,5′-dione]
inhibiting aldose reductase, compared with sorbinil (aldose reductase): more effective in inhibiting aldose reductase | effectiveness in preventing the accumulation of sorbitol relative to sorbinil (accumulation of sorbitol): 2-10 times

C[C@@H]1C[C@]2(NC(=O)NC2=O)c2cc(F)ccc2O1 [2R-MS, 2R,4S-6-fluoro-2-methyl-spiro[chroman-4,4′-imidazolidine]-2′,5′-dione]
stability in the emulsion [1]: stable in the emulsion for a minimum of ten months | half-life [2]: 3 h
